Measured values reported in publication PMC3326528 (Journal of the American Chemical Society, 2007).

How the values were obtained:
[1] = test system: FDAS; assay: Discontinuous assay of FDAS; format: biochemical, Streptomyces cattleya; details: turnover at a fixed substrate concentration compared to the wild type
[2] = biological target: T1, FDAS (Streptantibioticus cattleyicolor, UniProt Q70GK9); assay: Active site titration of FDAS; format: biochemical, Streptomyces cattleya
[3] = biological target: FDAS (native, wild type) (Streptantibioticus cattleyicolor, UniProt Q70GK9); assay: Isothermal titration calorimetry; format: binding
[4] = biological target: apo FDAS (Streptantibioticus cattleyicolor, UniProt Q70GK9); assay: ITC binding of ligands to apo FDAS; parameters: species or system Streptomyces cattleya; details: for Stoichiometry (N) / Ka (app) / S / ΔH: 25 °C; for Stoichiometry (N): 20mM sodium phosphate buffer (pH 7.8), apo FDAS; for Ka (app) / S / ΔH: pH 7.8, apo FDAS
[5] = biological target: FDAS pre-incubated with adenosine (Streptantibioticus cattleyicolor, UniProt Q70GK9); details: 1mM L-methionine titrated into 0.024 mM Adenosine and 0.02 mM apo FDAS mixture
[6] = biological target: FDAS pre-incubated with 5′-FDA (Streptantibioticus cattleyicolor, UniProt Q70GK9); details: 1mM L-methionine titrated into 0.08 mM FDA and 0.02 mM apo FDAS mixture
[7] = biological target: T1, FDAS; assay: Reactivity of SAH / homocysteine with FDAS; format: biochemical, Streptomyces cattleya
[8] = biological target: T1, FDAS; assay: Discontinuous assay of FDAS; format: biochemical, Streptomyces cattleya; details: F^− 200mM
[9] = biological target: D16N mutation of FDAS (Streptantibioticus cattleyicolor, UniProt Q70GK9, D16N); assay: ITC binding of SAM to D16N mutant; parameters: species or system Streptomyces cattleya

Row | Compound | Kd [3] [nM] | Stoichiometry (N) ([4]; ITC) | Ka (app) ([4]; ITC) | S ([4]; ITC) [kcal/mol] | ΔH ([4]; ITC) [kcal/mol] | also measured
1 | 5′-fluoro-5′-deoxy adenosine synthetase [FDAS] | – | – | – | – | – | % activity [1]: 100%; burst size (active sites) ([2]; 50 μM SAM mixed with FDAS (2 μM), reaction initiated with 100 mM F^−): 0.1 µM; burst size (active sites) ([2]; 100 mM F^− pre-mixed with FDAS (2 μM), reaction initiated by 50 μM SAM): 0.6 µM
2 | Nc1ncnc2c1ncn2[C@@H]1O[C@H](CO)C[C@H]1O [3′-deoxy-Ade, 3′-deoxyadenosine] | 2220 | – | – | – | – | –
3 | Nc1ncnc2c1ncn2[C@@H]1O[C@H](CO)C[C@H]1O [3′-deoxy-Ade] | – | 0.37 ± 0.02 | 4.5 ± 0.6 ×10^5 M^−1 | -0.027 | -16 ± 0.9 | reduction of affinity relative to adenosine ([4]; ITC): 3 fold
4 | Nc1ncnc2c1ncn2[C@@H]1O[C@H](CO)[C@@H](O)[C@H]1O [Ade, adenosine] | 820 | 0.67 ± 0.01 | 12.2 ± 1.2 ×10^5 M^−1 | -0.04 | -20 ± 0.4 | –
5 | Nc1ncnc2c1ncn2[C@@H]1O[C@H](CF)[C@@H](O)[C@H]1O [FDA, 5′-fluoro-5′-deoxy adenosine] | – | 1.16 ± 0.01 | 45.5 ± 6.5 ×10^5 M^−1 | -0.017 | -14 ± 0.1 | –
6 | Nc1ncnc2c1ncn2[C@@H]1O[C@H](CF)[C@@H](O)[C@H]1O [FDA, 5′-fluoro-5′-deoxyadenosine (5′-FDA)] | 220 | – | – | – | – | –
7 | CSCC[C@H](N)C(=O)O [L-methionine] | – | – | – | – | – | S [5]: -0.022 kcal/mol; Stoichiometry (N) [5]: 0.48 ± 0.11; ΔH [5]: -13 ± 3 kcal/mol; S [6]: -0.036 kcal/mol; ΔH [6]: -17 ± 2 kcal/mol
8 | Nc1ncnc2c1ncn2[C@@H]1O[C@H](CSCC[C@H](N)C(=O)O)[C@@H](O)[C@H]1O [SAH, S-adenosyl homocysteine] | 33.1 | 0.72 ± 0.01 | 302 ± 74 ×10^5 M^−1 | -0.098 | -40 ± 0.5 | effect on the reaction of SAM with F^− [7]: inhibits; substrate of FDAS in the forward direction [7]: not a substrate; 5′-ClDA production by the enzyme ([7]; incubation of Cl^− and SAH): does not produce 5′-ClDA; binding affinity relative to SAM (times more tightly bound) ([4]; ITC): 40 times
9 | C[S+](CC[C@H](N)C(=O)[O-])C[C@H]1O[C@@H](n2cnc3c(N)ncnc32)[C@H](O)[C@@H]1O (stereo partly drawn) [SAM, S-adenosyl-L-methionine] | 1250 | 0.56 ± 0.01 | 8.0 ± 0.5 ×10^5 M^−1 | -0.058 | -25 ± 0.4 | SAM concentration above which FDAS displays substrate inhibition [8]: greater than 20 μM; SAM binding by ITC [9]: does not bind with measurable affinity
10 | F [fluoride] | – | – | – | – | – | binding to the protein by ITC ([4]; either as apo or SAH complex): too weak to measure
11 | NC(CCS)C(=O)O (stereo not shown) [homocysteine] | – | – | – | – | – | SAH production by the enzyme (HPLC) ([7]; 5-ClDA and homocysteine): nor is any detected; SAH production by the enzyme (HPLC) ([7]; homocysteine and 5′-FDA, reverse reaction): no detectable production of SAH
